{"source": "patent US5594024A", "about": "“Centrally actig substituted phenylazacycloalkanes” (priority 1995, dated 1997)", "key": {"in vivo": {"experiment": "in vivo", "design": "species or system rat (male Sprague-Dawley)", "conditions": "rat", "experimental": "This is in contrast to the actions of the preferential dopamine autoreceptor antagonists (+)-AJ76 and (+)-UH232 5. The blood levels of (±)-34 were measured after oral (40 μmol/kg) and iv (5 μmol/kg) administration of the drug to male Sprague-Dawley rats (250-300 g) that were cannulated with catheters in the jugular vein and the arteria carotis. The levels of (±)-34 were measured in whole blood by means of GC-MS. […] The oral availability is considerably better than the values obtained for (+)-UH232 and (+)-AJ76 (approximately 6 and 3%, respectively)."}, "[1]": {"tested_on": "central dopamine receptors", "conditions": "Hacksell et al., J. Med. Chem., 24, 1475 (1981); cited from earlier work"}, "DA receptor [2]": {"tested_on": "DA receptor", "conditions": "after NSD1015; Johansson et al.; cited from earlier work"}, "D3": {"tested_on": "D3", "conditions": "Sokoloff, et al., Nature, 347 146-51 (1990); series of classical and atypical neuroleptics; cited from earlier work"}, "DA receptor [3]": {"tested_on": "DA receptor", "conditions": "no NSD1015 treatment; Johansson et al.; cited from earlier work"}, "[4]": {"conditions": "comparison values, source not given; cited from earlier work"}, "non-pretreated rats [5]": {"tested_on": "non-pretreated rats", "conditions": "Johansson et al.; cited from earlier work"}, "[6]": {"tested_on": "d-amphetamine-induced hyperactivity", "experiment": "d-Amphetamine-induced hyperactivity in habituated rats", "format": "in vivo, rat", "conditions": "test compound 14 mg/kg, sc; d-amphetamine 5 mg/kg"}, "D2 receptors": {"target": "T1, D2 receptors (Rattus norvegicus, UniProt P61169)", "T1 construct": "Preparation of rat striatal membranes for (3H)-spiperone; from tissue; host or cells: rat striatum (striatal membranes)", "T1 sequence (P61169 whole entry)": "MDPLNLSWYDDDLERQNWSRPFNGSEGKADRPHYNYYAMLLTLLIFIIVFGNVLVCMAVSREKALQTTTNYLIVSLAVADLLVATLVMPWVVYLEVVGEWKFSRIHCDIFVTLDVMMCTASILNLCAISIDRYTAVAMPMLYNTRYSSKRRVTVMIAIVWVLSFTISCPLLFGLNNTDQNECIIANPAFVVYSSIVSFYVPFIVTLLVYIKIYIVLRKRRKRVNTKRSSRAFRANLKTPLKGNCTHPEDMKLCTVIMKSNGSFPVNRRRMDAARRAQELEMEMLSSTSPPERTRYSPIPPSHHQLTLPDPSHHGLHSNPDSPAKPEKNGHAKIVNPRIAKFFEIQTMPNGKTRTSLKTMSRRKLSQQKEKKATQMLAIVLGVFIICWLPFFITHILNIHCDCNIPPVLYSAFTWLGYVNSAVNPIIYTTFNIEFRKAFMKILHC", "experiment": "D2 antagonist binding ([3H]-spiperone), rat striatum", "experimental": "D2 antagonist binding. Preparation of rat striatal membranes for (3H)-spiperone (specific activity 21-24 Ci/mmol) binding was carried out in a similar manner as described for D1-binding, Hyttel et al., J. Neural. Transm., 68, 171 (1987).\nIC50 values were calculated by semi-log plot and linear regression analysis."}, "habituated rats": {"tested_on": "habituated rats", "experiment": "Locomotor activity and behavior in habituated rats", "format": "in vivo, rat (male Sprague-Dawley)", "conditions": "habituated rats", "experimental": "(§1) Footnotes Table 3. The rats were habituated to the motility meters 60 min\nprior to the activity session.\n(§2) Injection volumes were 5 mL/kg.\nLocomotor activity was measured in rats which were habituated 60 minutes to the activity meters before drug injection. The activity was measured for the subsequent 60 minutes and expressed as % of controls (means ±SEM, n=4)."}, "[7]": {"tested_on": "central dopamine receptors", "experiment": "Locomotor activity and DA synthesis in reserpinized rats", "format": "in vivo, rat"}, "non-pretreated rats [8]": {"tested_on": "non-pretreated rats", "experiment": "Locomotor activity and gross behavior in non-habituated (non-pretreated) rats", "conditions": "non-pretreated rats", "quoted_text": "Immediately after drug administration, the rats were placed in the test cages (one rat/cage) and put into the motility meters. […] Observations of gross behavior were made throughout the activity sessions through semi-transparent mirrors.\n(§3) Animals used in the biochemical and motor activity experiments were male rats of the Sprague-Dawley strain (ALAB, Sollentuna, Sweden), weighing 200-300 g. The rats were kept 5 per cage with free access to water and food (except for the starved animals for the experiments with per oral administration, who were only allowed water the last 18 hours before testing), at least one week from arrival until used in the experiments.\n(§4) All substances to be tested were dissolved in saline immediately before use, occasionally with the addition of a few drops of glacial acetic acid and/or moderate heating in order to obtain complete dissolution. Injection volumes were 5 mL/kg.\nAnalysis of variance (ANOVA) followed by Fischer's test was used for the statistical calculations.\nIn vivo behavioral data was obtained with rats injected with drug and 5 minutes later put into the motility chambers for the first time. The motor activity was measured for the subsequent 30 minutes (accumulated counts/30 minutes) and expressed as % of saline treated controls."}, "5-HT1A": {"target": "T2, 5-HT1A (Rattus norvegicus, UniProt P19327)", "T2 construct": "the whole brain with the exception of the brainstem and cerebellum was rapidly removed; from tissue", "T2 sequence (P19327 1-422)": "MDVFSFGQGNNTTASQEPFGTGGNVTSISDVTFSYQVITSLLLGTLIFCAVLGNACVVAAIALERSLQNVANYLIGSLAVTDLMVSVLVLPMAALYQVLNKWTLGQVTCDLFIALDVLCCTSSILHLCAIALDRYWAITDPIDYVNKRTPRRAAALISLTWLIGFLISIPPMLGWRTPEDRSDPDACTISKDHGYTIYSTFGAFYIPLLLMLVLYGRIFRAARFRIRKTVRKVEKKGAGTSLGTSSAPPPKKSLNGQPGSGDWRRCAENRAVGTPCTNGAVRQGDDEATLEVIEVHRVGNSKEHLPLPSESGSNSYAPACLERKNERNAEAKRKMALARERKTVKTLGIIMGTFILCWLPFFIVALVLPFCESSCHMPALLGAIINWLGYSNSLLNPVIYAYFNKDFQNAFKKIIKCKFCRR", "experiment": "5-HT1A radioligand binding ([3H]-8-OH-DPAT)", "design": "species or system rat (male Sprague-Dawley)", "conditions": "[3H]-8-OH-DPAT, rat cortex; read-out: in vitro binding IC50, 5HT1A", "experimental": "^b Serotonin 5HT1A ([^3 H]-8OH-DPAT, agonist) rat cortex.\n5-HT1A radioligand binding. Male Sprague-Dawley rats (160-225 g) were killed by decapitation and the whole brain with the exception of the brainstem and cerebellum was rapidly removed, weighed and chilled in ice-cold 0.9% NaCl. Each brain was homogenized (Ultra-Turrax, 20 s) in 10 mL ice-cold 50 mM Tris buffer (pH 8.0 at 25° C.) containing 120 mM NaCl, 4 mM CaCl2 and 4 mM MgCl2 and centrifuged at 20,000 g's at 4° C. for 10 minutes. Pellets were resuspended in 10 mL fresh buffer and preincubated for 10 minutes in a 37° C. waterbath and then recentrifuged. Final pellets were homogenized in 100 volumes (w/v) of Tris buffer (as described above) containing 10 μM pargyline. The incubation tubes were kept on ice in triplicates and received 100 μL drug solution in water (or water for total binding) and 1000 μL membrane suspension (corresponds to 10 mg original tissue). The binding experiment was initiated by addition of 100 μL of (3H)-8-OH-DPAT (specific activity 143-158 Ci/mmol) in ascorbic acid (the final incubation concentration was 1 nM (3H)-8-OH-DPAT in 0.1% ascorbic acid). After incubation for 15 minutes at 37° C. the reaction was terminated by separation of the free radioligand from bound by rapid vacuum filtration using a cell harvester equipment (O. M. Teknik, Denmark). The tubes were rinsed with 4 mL and the filters (Whatman GF/F 25 mm) were washed twice with 4 mL ice-cold 0.9% NaCl.\nThe radioactivity of the filters was measured in a liquid scintillation counter (efficiency 41%) in 5 mL Picofluor®. Specific binding (70-75% of total binding) was defined as the radioactivity displaced by 10 μM 5-HT. IC50 values were calculated by semi-log plot and linear regression analysis."}, "5-HT receptor": {"tested_on": "5-HT receptor", "experiment": "5-HTP accumulation (5-HT synthesis rate) in non-pretreated rats after NSD 1015", "format": "in vivo, rat (male Sprague-Dawley)", "experimental": "observations are commented to the right. After the session the rats were\naccumulation in the NErich cortical regions and 5HTP in the limbic\nas §2"}, "DA receptor [9]": {"tested_on": "DA receptor", "experiment": "DA metabolism (DOPAC, HVA levels) in habituated rats", "format": "in vivo, rat (male Sprague-Dawley)", "conditions": "for response vs control in vivo at 100 µmol/kg: Rattus norvegicus, sc, 1 h", "experimental": "as §1\nThe rats were immediately killed after the activity session, striata\nand limbic levels of DOPAC and 5HIAA were measured by means of HPLCEC. *p\nIn the experiments with habituated rats no NSD was administered and the animals were killed one hour after drug administration. […] The levels were expressed as % of controls (DOPAC and 5-HIAA see Table 3). The in vivo brain microdialysis experiments were performed in conscious rats as described by Waters et al., Eur. J. Pharm., 187, 425-34 (1990).\nas §2\nAfter the activity session the rats were killed and the brain levels of HVA and DOPAC were measured (data are expressed as means ±SEM)."}, "DA receptor [10]": {"tested_on": "DA receptor", "experiment": "DOPA accumulation (DA synthesis rate) in non-pretreated rats after NSD 1015", "quoted_text": "injected with NSD 1015 (100 mg/kg, i.p.) and then killed 30 min later.\nIn-vivo determination of rat brain monoamine metabolites and tyrosine and tryptophan hydroxylation (biochemically monitored DA and 5-HT receptor agonist or antagonist activity).\nThe compounds under evaluation were tested biochemically for central DA and 5-HT receptor (pre- and/or postsynaptic) stimulating and/or blocking activity. The concept of this biochemical screening method is that a DA or 5-HT receptor agonist will stimulate the receptor and through regulatory negative feed-back systems induce a decline in tyrosine or tryptophan hydroxylating activity, respectively, and a subsequent reduction in the synthesis rate of DA and 5-HT in the presynaptic neuron. […] The biochemical experiments and the determinations of Dopa and 5-HTP by means of HPLC with electrochemical detection were performed. The antagonistic effects were seen as increases in the synthesis rate (n=4), as a result of the positive feed-back upregulation of synthesis. The effects on Dopa and 5-HTP accumulation are expressed as % of controls, which were: DOPA limbic system=447±23 ng/g and DOPA striatum=1045±47ng/g, 5-HTP limbic region 241±2 ng/g (Table 2).\nas §3, §4\nAnalysis of variance (ANOVA) followed by Fischer's test was used for the statistical calculations. P values less than 0.05 were regarded statistically significant.\nDOPA accumulation (DA synthesis rate) in non-pretreated rats (Table 2). After the locomotor activity session (see Table 2, above) the rats were injected with the decarboxylase inhibitor NSD 1015 (100 mg/kg, sc) and killed 30 minutes later. The DOPA accumulation in the DA -rich limbic and striatal and the NE-rich cortical (mainly hemispheres) brain areas were expressed as % of saline treated controls.\nDOPA accumulation, time course after s.c. and p.o. administration (Table 2). […] NSD 1015 (100 mg/kg, sc) was injected 30 minutes before death. The data are expressed as % of saline treated controls."}, "dopamine autoreceptors": {"tested_on": "dopamine autoreceptors", "experiment": "GBL-model (DA synthesis rate; presynaptic dopamine autoreceptors)", "format": "in vivo, rat", "conditions": "apomorphine […], sc; GBL 750 mg/kg, i.p.", "text": "The effects on DOPA accumulation in the GBL-model is considered to reflect an event at the presynaptic dopamine autoreceptors (for further details, see Svensson et al., Nunyn-Schmiedeberg's Arch. Pharm., 334, 234(1986))."}}, "note": "Read-outs that look alike come from different tables or passages of the source."}
{"compound": "CCCN1CCCC(c2cccc(C#N)c2)C1", "note": "(racemic) [(±)-34, 3-(3-cyanophenyl-N-n-propyl)piperidine]", "values": [{"measurement": "half-life", "setting": "in vivo; iv", "value": "~3", "unit": "h"}, {"measurement": "bioavailability", "setting": "in vivo; po, oral bioavailability", "value": "~78", "unit": "%"}, {"measurement": "direct receptor agonistic effects in reserpinized rats", "setting": "[1]", "value": "no direct receptor agonistic effects"}]}
{"compound": "CCCN[C@@H]1CCc2c(OC)cccc2[C@@H]1C", "note": "[(+)-AJ76, (+)-cis-1S,2R-5-methoxy-1-methyl-2-(N-n-propylamino)tetralin]", "values": [{"measurement": "Dopa accumulation in normal animals", "setting": "DA receptor [2]", "value": "raise the Dopa accumulation"}, {"measurement": "preference for the D3 site", "setting": "D3", "value": "highest preference for the D3 site"}, {"measurement": "levels of the DA metabolites DOPAC and HVA", "setting": "DA receptor [3]", "value": "raise the levels of the DA metabolites DOPAC and HVA"}, {"measurement": "oral availability", "setting": "[4]", "value": "approximately 3%"}, {"measurement": "locomotor activity (photocell motility meters)", "setting": "non-pretreated rats [5]", "value": "increase the locomotor activity"}, {"measurement": "effect on activation induced by high dose d-amphetamine", "setting": "[6]", "value": "clearly blocked the stimulation"}]}
{"compound": "CCCN(CCC)[C@@H]1CCc2c(OC)cccc2[C@@H]1C", "note": "[(+)-UH232, (+)-cis-1S,2R-5-methoxy-1-methyl-2-(N,N-di-n-propylamino)tetralin]", "values": [{"measurement": "Dopa accumulation in normal animals", "setting": "DA receptor [2]", "value": "raise the Dopa accumulation"}, {"measurement": "preference for the D3 site", "setting": "D3", "value": "highest preference for the D3 site"}, {"measurement": "levels of the DA metabolites DOPAC and HVA", "setting": "DA receptor [3]", "value": "raise the levels of the DA metabolites DOPAC and HVA"}, {"measurement": "oral availability", "setting": "[4]", "value": "approximately 6%"}, {"measurement": "locomotor activity (photocell motility meters)", "setting": "non-pretreated rats [5]", "value": "increase the locomotor activity"}]}
{"compound": "CCCN1CCC[C@H](c2cccc(C#N)c2)C1", "note": "[R-(+)-34, R-(+)-3-(3-Cyanophenyl-N-n-propyl)piperidine]", "values": [{"measurement": "affinity for D2 receptors (in words)", "setting": "D2 receptors; (3H)-Spiperone binding", "value": "essentially no affinity for D2 receptors"}, {"measurement": "IC50", "setting": "D2 receptors; read-out: in vitro binding IC50, D2 -spip, [3H]-spiperone, rat striatum", "value": 100, "unit": "µM"}, {"measurement": "Behavioral observations", "setting": "habituated rats; 100 μmol/kg sc", "value": "Activation"}, {"measurement": "locomotor activity in habituated rats (in words)", "setting": "habituated rats", "value": "stimulates the locomotor activity in habituated rats"}, {"measurement": "motor activity in reserpinized rats", "setting": "[7]; 50 μmol/kg, sc, reserpine 5 mg/kg, 18 h before", "value": "6±2", "unit": "counts/30 min"}, {"measurement": "DA synthesis rate / DOPA accumulation in reserpinized rats (in words)", "setting": "[7]; reserpinized rats", "value": "failed to produce locomotor stimulation or to affect the DA synthesis rate in reserpinized rats"}, {"measurement": "locomotor stimulation in reserpinized rats (in words)", "setting": "[7]; reserpinized rats", "value": "failed to activate the reserpinized rats"}, {"measurement": "locomotor stimulation in reserpinized rats (in words)", "setting": "[7]; reserpinized rats, listed as (R)-34", "value": "failed to produce locomotor stimulation"}, {"measurement": "Gross Behavioral Observations", "setting": "non-pretreated rats [8]; 50 po", "value": "No change"}, {"measurement": "Motor Act.", "setting": "non-pretreated rats [8]; 50 po, 30 min", "value": "133 ± 14 % of saline controls"}, {"measurement": "Gross Behavioral Observations", "setting": "non-pretreated rats [8]; 50 sc", "value": "stimulat."}, {"measurement": "IC50", "setting": "5-HT1A", "value": 14, "unit": "µM"}, {"measurement": "5-HTP acc Limbic Region", "setting": "5-HT receptor; 50 po", "value": "99 ± 3 % of saline controls"}, {"measurement": "5-HTP acc Limbic Region", "setting": "5-HT receptor; 50 sc", "value": "82 ± 1 % of saline controls"}, {"measurement": "response vs control in vivo at 100 µmol/kg", "setting": "DA receptor [9]; read-out: DOPAC limbic", "value": "120 ± 5", "unit": "%"}, {"measurement": "response vs control in vivo at 100 µmol/kg", "setting": "DA receptor [9]; read-out: DOPAC striatum", "value": "117 ± 3", "unit": "%"}, {"measurement": "limbic DOPAC levels (in words)", "setting": "DA receptor [9]; rat, in vivo", "value": "only weakly elevated limbic DOPAC"}, {"measurement": "DOPA acc Cortex", "setting": "DA receptor [10]; 50 po", "value": "103 ± 9 % of saline controls"}, {"measurement": "DOPA acc Stratium", "setting": "DA receptor [10]; 50 po", "value": "172 ± 8 % of saline controls"}, {"measurement": "DOPA acc Cortex", "setting": "DA receptor [10]; 50 sc", "value": "145 ± 11 % of saline controls"}, {"measurement": "DOPA acc Stratium", "setting": "DA receptor [10]; 50 sc", "value": "281 ± 11 % of saline controls"}]}
{"compound": "CN1CCc2cccc3c2[C@H]1Cc1ccc(O)c(O)c1-3", "note": "[apomorphine, reference compound]", "values": [{"measurement": "effect on GBL-elevated limbic and striatal DA synthesis rate", "setting": "dopamine autoreceptors", "value": "completely reversed"}]}
